These are literature values, as cited in PubChem BioAssay AID1259409 (Chemical Carcinogenesis Research Information System (CCRIS), 2018).

The data set concerns rodent chemically induced tumor inhibition, incidence and multiplicity. The experiment in a line: CCRIS tumor inhibitor studies. To be noted: Dose [Inhibitor]: 0, Species: MOUSE.

On to `CC[C@H](C)C(=O)O[C@H]1C[C@@H](C)C=C2C=C[C@H](C)[C@H](CC[C@@H]3C[C@@H](O)CC(=O)O3)[C@H]21`, for which the “tumour outcome (control, treated, inhibition, significance)” value is, setting by setting: (Carcinogen: 4-(N-METHYL-N-NITROSAMINO)-1-(3-PYRIDYL)-1-BUTANONE, 64091-91-4, 40 PPM IN THE DIET FOR 6 MO BEGINNING 1 WK POST CARCINOGEN DOSE (STUDY DURATION: 6 MO), Route [Inhibitor]: ORAL, Strain/Sex: STRAIN-A/MALE, Target Tissue: Type of Lesion: LUNG: TUMOR, Dose [Carcinogen]: 10 UMOL ONCE, Promoter: NONE USED) 15/15 (100%), 15/15 (100%), 0%, not significant; (Carcinogen: 4-(N-METHYL-N-NITROSAMINO)-1-(3-PYRIDYL)-1-BUTANONE, 64091-91-4, 160 PPM IN THE DIET FOR 6 MO BEGINNING 1 WK POST CARCINOGEN DOSE (STUDY DURATION: 6 MO), Route [Inhibitor]: ORAL, Strain/Sex: STRAIN-A/MALE, Target Tissue: Type of Lesion: LUNG: TUMOR, Dose [Carcinogen]: 10 UMOL ONCE, Promoter: NONE USED) 15/15 (100%), 15/15 (100%), 0%, not significant; (Carcinogen: 4-(N-METHYL-N-NITROSAMINO)-1-(3-PYRIDYL)-1-BUTANONE, 64091-91-4, 400 PPM IN THE DIET FOR 6 MO BEGINNING 1 WK POST CARCINOGEN DOSE (STUDY DURATION: 6 MO), Route [Inhibitor]: ORAL, Strain/Sex: STRAIN-A/MALE, Target Tissue: Type of Lesion: LUNG: TUMOR, Dose [Carcinogen]: 10 UMOL ONCE, Promoter: NONE USED) 15/15 (100%), 12/14 (86%), 14%, not significant.
Take `C=C1CC[C@H]2[C@@]3(C)CCC[C@]2(C)[C@H]1CO[C@@H](C(=O)OC)[C@H](CC(=O)O)C(=O)OC[C@]1(C)CCC[C@]2(C)[C@@H](CO[C@@H](C(=O)OC)[C@H](CC(=O)O)C(=O)OC3)C(=C)CC[C@@H]12`: the “tumour outcome (control, treated, inhibition, significance)” value by setting is: (Carcinogen: 7,12-DIMETHYLBENZ[A]ANTHRACENE, 57-97-6, 1 MG 2/WK FOR 20 WK APPLIED 10 MIN PRIOR TO EACH PROMOTER DOSE (STUDY DURATION: 20 WK), Route [Inhibitor]: DERMAL, Strain/Sex: CD-1/FEMALE, Target Tissue: Type of Lesion: SKIN: TUMOR, Dose [Carcinogen]: 100 UG ONCE, Promoter: OKADAIC ACID, 78111-17-8) 73%, 80%, -10%, not significant; (Carcinogen: 7,12-DIMETHYLBENZ[A]ANTHRACENE, 57-97-6, 5 MG 2/WK FOR 20 WK APPLIED 10 MIN PRIOR TO EACH PROMOTER DOSE (STUDY DURATION: 20 WK), Route [Inhibitor]: DERMAL, Strain/Sex: CD-1/FEMALE, Target Tissue: Type of Lesion: SKIN: TUMOR, Dose [Carcinogen]: 100 UG ONCE, Promoter: OKADAIC ACID, 78111-17-8) 73%, 93%, -27%, not significant.
